Several values for one entry are separate records, joined by “and”; a condition that tells them apart may be missing. Equal values may be shown once. Residues, ends and D or L forms follow the SMILES beside them.
Legend:
[1] = target: T1, human alphaB-crystallin (Homo sapiens, UniProt P02511); assay: ADH aggregation assay with alphaB-crystallin instead of Hsp16.3 (specificity); assay type: biochemical; details: 25, 50, 100 µM peptide; ADH:alphaB-crystallin 5:4
T1 construct: expression vector from Dr. W.C; Boelens, University of Nijmegen
T1 sequence (P02511 1-175): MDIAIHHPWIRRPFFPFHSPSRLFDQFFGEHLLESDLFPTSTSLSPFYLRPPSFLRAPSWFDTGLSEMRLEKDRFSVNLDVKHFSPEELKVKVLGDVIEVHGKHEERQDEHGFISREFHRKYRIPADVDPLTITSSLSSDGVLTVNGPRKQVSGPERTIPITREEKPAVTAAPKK

[2] = target: T2, Hsp16.3 (Mycobacterium tuberculosis, UniProt P9WMK1); assay: NMR (TOCSY) comparison of amide proton chemical shifts of free peptide and peptide with Hsp16.3; assay type: binding; details: 0.1 mM protein, 2 mM peptide, 20 mM sodium phosphate pH 7.0, 250 mM NaCl, 4°C
Description: All NMR spectra were taken in a Bruker DRX-500 NMR spectrometer equipped with a Z-field gradient probe. All measurements were done in high precision 5-mm NMR tubes in 20 mM sodium phosphate buffer, pH 7.0, containing 250 mM NaCl in 90% H2O and 10% D2O. All NMR experiments were done at 4°C, unless stated otherwise. TOCSY spectra were measured using standard pulse sequences in the Bruker pulse library using WATERGATE water suppression method. Standard Bruker software (Xwin-NMR version 1.3) was used to acquire and process the NMR data. The NMR samples were adjusted to a protein concentration of 0.1 mM and a 20-fold ligand excess (2 mM) over binding sites was used throughout the studies.
The comparison of chemical shifts of amide protons of free peptide (Seq ID 10) (A) and peptide with Hsp16.3 protein (B). Resonance assignments are indicated with a one-letter amino acid code. All NMR spectra were taken in a Bruker DRX-500 spectrometer equipped with a Z-field gradient probe. All measurements were done in high precision 5-mm NMR tubes in 20 mM sodium phosphate buffer, pH 7.0, containing 250 mM NaCl in 90% H2O and 10% D2O at 4°C. TOCSY spectra were measured using standard pulse sequences in the Bruker pulse library using WATERGATE water suppression method. Standard Bruker software (Xwin-NMR version 1.3) was used to acquire and process the NMR data. […]

[3] = target: T2, Hsp16.3; assay: Peptide inhibition assay for Hsp16.3 chaperon activity (heat-induced ADH aggregation, A360); assay type: biochemical; details: for IC50: IC50 (concentration of peptide at which 50% inhibition of chaperon activity was observed), 5 µM ADH, 50°C, ADH:Hsp16.3 5:4, A360 at 1200 sec
From the text: The binding of a peptide need not necessarily result in inhibition. Inhibition will happen only if binding leads to significant changes in the active site. […] A part of the invention is the development of a peptide inhibition assay for Hsp16.3. The method is based on aggregation based assays. The standard assay used for assaying the activity of alpha-crystallin like proteins is to study the protection it confers against heat induced aggregation of proteins, the aggregation activity being measured spectrophotometrically. Yeast alcohol dehydrogenase (ADH), purchased from Sisco Research Laboratory, Mumbai, India, is used for aggregation studies. Aggregation of 5 µM ADH at 50°C can be measured as an apparent optical density at 360 nm using a spectrophotometer equipped with a thermostated cuvette holder in a total reaction volume of 500 µl. The chaperon activity of Hsp16.3 can be determined by mixing ADH with Hsp16.3 at a molar ratio of 5:4 which is equivalent to a ratio of about 12:1 between ADH and Hsp16.3 assuming a nonameric structure of Hsp16.3 as the functional unit (Chang et al., 1996) and aggregation rates again determined spectrophotometrically. Then the same experiment can be repeated in the presence of increasing concentrations of peptide inhibitors.
A part of the invention is the peptide inhibition assay for Hsp16.3 comprising of heat treating ADH alone, ADH + Hsp16.3 and ADH + Hsp16.3 + 25, 50 and 100 µM peptide. When ADH is heated it aggregates and there is an increase of optical density. In the presence of Hsp16.3 aggregation is prevented, but in the presence of peptide aggregation is again observed if Hsp16.3 activity is inhibited. Aggregation of 5 µM ADH at 50°C was measured as an apparent optical density at 360 nm using Hitachi spectrophotometer equipped with a thermostated cuvette holder in a total reaction volume of 500 µl. The chaperon activity of Hsp16.3 was determined by mixing ADH with Hsp16.3 at a molar ratio of 5:4 and aggregation rates were again determined spectrophotometrically. Then the same experiment was performed in the presence of increasing concentrations of the Hsp16.3 binding peptides (Seq IDs 10 and 22) (Figure 2).
Aggregation assays were performed by heating 5 µM Alcohol dehydrogenase (ADH) to 50°C directly in a spectrophotometer using a thermostated cuvette holder in a total reaction volume of 500 µl. Absorbance was monitored at 360 nm (A360) for 1200 seconds and readings were taken at every 100 seconds interval. When the A360 values were plotted against time (black triangle) it was observed that absorbance increased with time reaching near saturation level at the1200 sec time point. The increase in absorbance indicates aggregation of ADH. […] However the same effect may be obtained if the peptide instead of inhibiting the activity of Hsp16.3 promotes the aggregation of ADH. To eliminate such a possibility a control experiment was done in which the peptide alone was added to ADH.
To obtain a more quantitative interpretation of the data the % residual chaperon activity of Hsp 16.3 in the presence of different concentrations of inhibitor was derived as follows, the A360 values at the saturation point (1200 secs) being taken into consideration.
The % chaperon activity was then plotted against peptide concentration (Fig. 2B). From the resulting curve it is apparent that chaperon activity decreases exponentially with increasing concentration of peptide. […]

[4] = target: T2, Hsp16.3; assay: biochemical; assay type: binding; details: fluoresceinated peptide 200 nM, 50 mM sodium phosphate buffer, pH 7.5, 300 mM NaCl, 25°C, single-site fit

T2 sequence (P9WMK1 whole entry, looked up): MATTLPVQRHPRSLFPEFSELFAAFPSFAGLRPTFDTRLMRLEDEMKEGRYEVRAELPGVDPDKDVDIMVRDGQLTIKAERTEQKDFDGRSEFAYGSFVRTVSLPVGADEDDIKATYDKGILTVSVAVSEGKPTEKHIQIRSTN

SMILES: CSCC[C@H](NC(=O)[C@@H](N)CCCCN)C(=O)N[C@@H](Cc1c[nH]cn1)C(=O)N[C@@H](C)C(=O)N[C@H](C(=O)N[C@@H](CC(N)=O)C(=O)N[C@@H](Cc1c[nH]cn1)C(=O)NCC(=O)NCC(=O)NCC(=O)N[C@@H](CO)C(N)=O)[C@@H](C)O [Seq ID 10, Lys-Met-His-Ala-Thr-Asn-His-Gly-Gly-Gly-Ser] (H-KMHATNHGGGS-NH2)
- inhibition of chaperon activity of alphaB-crystallin [1]: no inhibition
- chemical shift of amide protons on addition of Hsp16.3 [2]: significant chemical shift occured in both histidines
- aggregation restored ([3]; 100 µM peptide, A360 at saturation point, ADH:Hsp16.3 5:4): ~70%
- inhibition of chaperon activity of Hsp16.3 ([3]; 25, 50 and 100 µM peptide): dose dependent inhibition
- influence of peptide alone on aggregation of ADH (only peptide control) ([3]; ADH + 100 µM peptide, no Hsp16.3): does not influence the aggregation of ADH
- IC50 [3]: 47 µM and ~47 µM
- Kd [4]: ~50 µM and 50 µM

SMILES: CC[C@H](C)[C@H](NC(=O)[C@@H]1CCCN1C(=O)[C@@H](NC(=O)[C@H](Cc1c[nH]cn1)NC(=O)[C@H](CCCNC(=N)N)NC(=O)[C@H](Cc1c[nH]cn1)NC(=O)[C@H](CCCCN)NC(=O)[C@H](Cc1ccccc1)NC(=O)[C@H](Cc1c[nH]cn1)NC(=O)[C@H](Cc1c[nH]cn1)NC(=O)[C@@H]1CCCN1C(=O)[C@@H](N)Cc1ccc(O)cc1)[C@@H](C)CC)C(=O)NCC(=O)NCC(=O)NCC(=O)N[C@@H](CO)C(N)=O [Seq ID 22, Tyr-Pro-His-His-Phe-Lys-His-Arg-His-Ile-Pro-Ile-Gly-Gly-Gly-Ser] (H-YPHHFKHRHIPIGGGS-NH2)
- IC50 [3]: 57 µM and 52 µM
- Kd [4]: ~40 µM and 40 µM
